Values after ≈ are worked out from the molar mass of the structure shown. Active and inactive are the calls of the source. The rule behind the calls is not given here.
Tests used:
HepG2 [1] = experiment: Induction of apoptosis in human HepG2 cells assessed as mitochondrial cytochrome c-dependent caspase-9 activation at 1.6 to 4.8 ug/mL after 24 hrs by Western blot analysis; assay type: functional, cell-based
HepG2 [2] = experiment: Cell cycle arrest in human HepG2 cells assessed as accumulation at G1 phase at 4.8 ug/mL after 24 hrs by propidium iodide staining-based flow cytometric analysis (reference value: 45%); assay type: functional
HepG2 [3] = experiment: Cell cycle arrest in human HepG2 cells assessed as accumulation at S phase at 6.4 ug/mL after 24 hrs by propidium iodide staining-based flow cytometric analysis (reference value: 46%); assay type: functional
HepG2 [4] = experiment: Cell cycle arrest in human HepG2 cells assessed as accumulation at sub-G1 phase at 1.6 ug/mL after 24 hrs by propidium iodide staining-based flow cytometric analysis (reference value: 4%); assay type: functional
HepG2 [5] = experiment: Cell cycle arrest in human HepG2 cells assessed as accumulation at G1 phase at 1.6 ug/mL after 24 hrs by propidium iodide staining-based flow cytometric analysis (reference value: 45%); assay type: functional
HepG2 [6] = experiment: Induction of apoptosis in human HepG2 cells assessed as increase in early apoptotic cells after 24 hrs by annexin V-FITC/propidium iodide staining-based FACS flow cytometric analysis; assay type: functional, cell-based
HepG2 [7] = experiment: Cell cycle arrest in human HepG2 cells assessed as accumulation at G2/M phase at 8 ug/mL after 48 hrs by propidium iodide staining-based flow cytometric analysis (reference value: 5%); assay type: functional
H22 = experiment: Antitumor activity against mouse H22 cells allografted in Kunming mouse assessed as decrease in tumor size at 0.5 to 1 mg/kg/day, ip administered 8 days measured after 10 days; assay type: functional, organism-based
HepG2 [8] = experiment: Induction of apoptosis in human HepG2 cells assessed as apoptotic body formation at 8 ug/mL after 24 hrs by acridine orange/ethidium bromide staining-based fluorescence microscopic analysis; assay type: functional, cell-based
HepG2 [9] = experiment: Cell cycle arrest in human HepG2 cells assessed as accumulation at G2/M phase at 6.4 ug/mL after 24 hrs by propidium iodide staining-based flow cytometric analysis (reference value: 9%); assay type: functional
HepG2 [10] = experiment: Cell cycle arrest in human HepG2 cells assessed as accumulation at sub-G1 phase at 4.8 ug/mL after 48 hrs by propidium iodide staining-based flow cytometric analysis (reference value: 3%); assay type: functional
HepG2 [11] = experiment: Cell cycle arrest in human HepG2 cells assessed as accumulation at S phase at 3.2 ug/mL after 24 hrs by propidium iodide staining-based flow cytometric analysis (reference value: 46%); assay type: functional
HepG2 [12] = experiment: Induction of apoptosis in human HepG2 cells assessed as increase in Bax level after 24 hrs by Western blot analysis; assay type: functional, cell-based
HepG2 [13] = experiment: Cell cycle arrest in human HepG2 cells assessed as accumulation at sub-G1 phase at 6.4 ug/mL after 24 hrs by propidium iodide staining-based flow cytometric analysis (reference value: 4%); assay type: functional
HepG2 [14] = experiment: Cell cycle arrest in human HepG2 cells assessed as accumulation at sub-G1 phase at 3.2 ug/mL after 48 hrs by propidium iodide staining-based flow cytometric analysis (reference value: 3%); assay type: functional
HepG2 [15] = experiment: Cell cycle arrest in human HepG2 cells assessed as accumulation at S phase at 1.6 ug/mL after 48 hrs by propidium iodide staining-based flow cytometric analysis (reference value: 31%); assay type: functional
HepG2 [16] = experiment: Cytotoxicity against human HepG2 cells assessed as cell viability after 48 hrs by MTT assay; assay type: functional, cell-based; conditions: HepG2, 48 h
HepG2 [17] = experiment: Cell cycle arrest in human HepG2 cells assessed as accumulation at G1 phase at 6.4 ug/mL after 48 hrs by propidium iodide staining-based flow cytometric analysis (reference value: 64%); assay type: functional
HepG2 [18] = experiment: Cell cycle arrest in human HepG2 cells assessed as accumulation at S phase at 6.4 ug/mL after 48 hrs by propidium iodide staining-based flow cytometric analysis (reference value: 31%); assay type: functional
HepG2 [19] = experiment: Cell cycle arrest in human HepG2 cells assessed as accumulation at G2/M phase at 3.2 ug/mL after 48 hrs by propidium iodide staining-based flow cytometric analysis (reference value: 5%); assay type: functional
HepG2 [20] = experiment: Cell cycle arrest in human HepG2 cells assessed as accumulation at sub-G1 phase at 3.2 ug/mL after 24 hrs by propidium iodide staining-based flow cytometric analysis (reference value: 4%); assay type: functional
HepG2 [21] = experiment: Cell cycle arrest in human HepG2 cells assessed as accumulation at G1 phase at 4.8 ug/mL after 48 hrs by propidium iodide staining-based flow cytometric analysis (reference value: 64%); assay type: functional
HepG2 [22] = experiment: Cytotoxicity against human HepG2 cells assessed as decrease in cell viability at 1.6 to 8 ug/mL by MTT assay; assay type: functional, cell-based; conditions: TDE = time-dependent effect
HepG2 [23] = experiment: Cell cycle arrest in human HepG2 cells assessed as accumulation at S phase at 8 ug/mL after 24 hrs by propidium iodide staining-based flow cytometric analysis (reference value: 46%); assay type: functional
HepG2 [24] = experiment: Cell cycle arrest in human HepG2 cells assessed as accumulation at G1 phase at 6.4 ug/mL after 24 hrs by propidium iodide staining-based flow cytometric analysis (reference value: 45%); assay type: functional
HepG2 [25] = experiment: Cell cycle arrest in human HepG2 cells assessed as accumulation at G1 phase at 3.2 ug/mL after 24 hrs by propidium iodide staining-based flow cytometric analysis (reference value: 45%); assay type: functional
HepG2 [26] = experiment: Cell cycle arrest in human HepG2 cells assessed as accumulation at G2/M phase at 1.6 ug/mL after 48 hrs by propidium iodide staining-based flow cytometric analysis (reference value: 5%); assay type: functional
HepG2 [27] = experiment: Cell cycle arrest in human HepG2 cells assessed as accumulation at S phase at 4.8 ug/mL after 48 hrs by propidium iodide staining-based flow cytometric analysis (reference value: 31%); assay type: functional
HepG2 [28] = experiment: Cell cycle arrest in human HepG2 cells assessed as accumulation at sub-G1 phase at 8 ug/mL after 24 hrs by propidium iodide staining-based flow cytometric analysis (reference value: 4%); assay type: functional
HepG2 [29] = experiment: Cytotoxicity against human HepG2 cells assessed as cell viability after 24 hrs by MTT assay; assay type: functional, cell-based; conditions: HepG2, 24 h
HepG2 [30] = experiment: Cell cycle arrest in human HepG2 cells assessed as accumulation at G1 phase at 1.6 ug/mL after 48 hrs by propidium iodide staining-based flow cytometric analysis (reference value: 64%); assay type: functional

Structure (SMILES): COC1=CC(=O)c2c(O)cccc2C1=O
- Activity (HepG2 [1]): Active
- Activity (HepG2 [2]): 38%
- Activity (HepG2 [3]): 61%
- Activity (HepG2 [4]): 5%
- Activity (HepG2 [5]): 37%
- Activity (HepG2 [6]): Dose-dependent effect
- Activity (HepG2 [7]): 0%
- Activity (H22): Active
- Activity (HepG2 [8]): Active
- Activity (HepG2 [9]): 2%
- Activity (HepG2 [10]): 6%
- Activity (HepG2 [11]): 64%
- Activity (HepG2 [12]): Dose-dependent effect
- Activity (HepG2 [13]): 6%
- Activity (HepG2 [14]): 4%
- Activity (HepG2 [15]): 49%
- IC50 (HepG2 [16]): 3.7 µg/mL (≈ 18.1 µM)
- Activity (HepG2 [17]): 46%
- Activity (HepG2 [18]): 52%
- Activity (HepG2 [19]): 1%
- Activity (HepG2 [20]): 2%
- Activity (HepG2 [21]): 32%
- Activity (HepG2 [22]): tde
- Activity (HepG2 [23]): 59%
- Activity (HepG2 [24]): 37%
- Activity (HepG2 [25]): 34%
- Activity (HepG2 [26]): 1%
- Activity (HepG2 [27]): 66%
- Activity (HepG2 [28]): 7%
- IC50 (HepG2 [29]): 3.8 µg/mL (≈ 18.6 µM)
- Activity (HepG2 [30]): 50%

Source: ChEMBL document CHEMBL2375211, “2-methoxyjuglone induces apoptosis in HepG2 human hepatocellular carcinoma cells and exhibits in vivo antitumor activity in a H22 mouse hepatocellular carcinoma model” (J Nat Prod, 2013)
